Measurements published in patent US20250170100A1, “MONOACYLGLYCEROL LIPASE INHIBITORS AND USE THEREOF FOR THE TREATMENT OF ANXIETY AND RELATED CONDITIONS” (Psy Therapeutics, Inc., priority 2021, published 2025).

Target: T1, human MAGL (Homo sapiens (Human), UniProt Q99685)
Test: MAGL inhibition potency assay with 4NPA substrate (methods of Table C)
Format: biochemical
Settings: Method 2: Cayman Chemical MAGL enzyme, 10 nM; read-out: MAGL Potency (Detection Method)

T1 sequence (Q99685 2-303): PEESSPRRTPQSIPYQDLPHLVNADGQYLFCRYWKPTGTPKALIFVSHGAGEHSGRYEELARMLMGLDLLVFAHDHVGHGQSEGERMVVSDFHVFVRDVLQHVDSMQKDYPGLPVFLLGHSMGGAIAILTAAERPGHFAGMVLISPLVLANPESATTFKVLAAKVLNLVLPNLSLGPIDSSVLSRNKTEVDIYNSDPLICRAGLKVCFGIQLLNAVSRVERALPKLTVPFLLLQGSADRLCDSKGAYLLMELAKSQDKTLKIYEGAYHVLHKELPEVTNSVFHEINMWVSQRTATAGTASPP

| Compound | IC50 [µM] |
| --- | --- |
| Cc1cc(C2CC3(C2)CN(C(=O)c2cc(O)ccc2C#N)C3)n(-c2ccccc2C)n1 [Compound 128, 4-hydroxy-2-({6-[3-methyl-1-(o-tolyl)-5-pyrazolyl]-2-aza-2-spiro[3.3]heptyl}carbonyl)benzonitrile] | < 0.05 |
| Cc1cc(C2CC3(C2)CN(C(=O)c2cc(O)c(F)cc2F)C3)n(-c2ccccc2C)n1 [Compound 126, (2,4-difluoro-5-hydroxyphenyl) (6-(3-methyl-1-(o-tolyl)-1H-pyrazol-5-yl)-2-azaspiro[3.3]heptan-2-yl) methanone] | < 0.05 |
| Cc1cc(C2CC3(C2)CN(C(=O)c2ccc(F)cc2OCC(F)(F)F)C3)n(-c2ccccc2C)n1 [Compound 178, [4-fluoro-2-(2,2,2-trifluoroethoxy)phenyl]{6-[3-methyl-1-(o-tolyl)-5-pyrazolyl]-2-aza-2-spiro[3.3]heptyl}methanone] | < 0.05 |

Same assay, conditions: Method 2: Cayman Chemical MAGL enzyme, 10 nM; read-out: Potency (MAGL inhibition)

| Compound | IC50 [µM] |
| --- | --- |
| Cc1cc(C2CC3(C2)CN([C@H]2COc4ccccc42)C3)n(-c2ccccc2C)n1 [Compound 154] | > 10 |
| COc1cc(F)ccc1C(=O)N1CC2(CC(c3cc(C)nn3-c3ccccc3C)C2)C1 [Compound 149] | > 10 |
| Cc1cc(C2CC3(C2)CN(C(=N)c2cc(O)ccc2F)C3)n(-c2ccccc2C)n1 [Compound 144] | > 10 |
| Cc1cc(C2CC3(C2)CN([C@@H]2CCOc4ccccc42)C3)n(-c2ccccc2C)n1 [Compound 153] | > 10 |
| Cc1cc(C2CC3(C2)CN(C2CCOc4ccccc42)C3)n(-c2ccccc2C)n1 (stereo not drawn) [Compound 152] | > 10 |
| Cc1cc(C2CC3(C2)CN(C(=O)c2ccoc2)C3)n(-c2ccccc2C)n1 [Compound 179] | > 10 |
| Cc1cc(C2CC3(C2)CN(C(=O)c2ccc[nH]2)C3)n(-c2ccccc2C)n1 [Compound 183] | > 10 |
| Cc1cc(C2CC3(C2)CN(C(=O)c2cc[nH]c2)C3)n(-c2ccccc2C)n1 [Compound 184] | > 10 |
| CCOc1cc(F)ccc1C(=O)N1CC2(CC(C(=O)Nc3ccccc3C)C2)C1 [Compound 188] | > 10 |
| Cc1cc(C2CC3(C2)CN(C(=O)c2ccn(C)c2)C3)n(-c2ccccc2C)n1 [Compound 182] | > 10 |
| Cc1cc(C2CC3(C2)CN(C(=O)c2cccn2C)C3)n(-c2ccccc2C)n1 [Compound 181] | > 10 |
| Cc1cc(C2CC3(C2)CN([C@@H]2COc4ccccc42)C3)n(-c2ccccc2C)n1 [Compound 155] | > 10 |

Same assay, conditions: Method 3: Reaction Biology MAGL enzyme, 10 nM; read-out: MAGL Potency (Detection Method)

| Compound | IC50 [µM] |
| --- | --- |
| Cc1cc(C2CC3(C2)CN(C(=O)c2cc(O)c(F)cc2F)C3)n(-c2ccccc2C)n1 [Compound 126, (2,4-difluoro-5-hydroxyphenyl) (6-(3-methyl-1-(o-tolyl)-1H-pyrazol-5-yl)-2-azaspiro[3.3]heptan-2-yl) methanone] | < 0.05 |
| Cc1cc(C2CC3(C2)CN(C(=O)c2ccc(F)cc2OCC(F)(F)F)C3)n(-c2ccccc2C)n1 [Compound 178, [4-fluoro-2-(2,2,2-trifluoroethoxy)phenyl]{6-[3-methyl-1-(o-tolyl)-5-pyrazolyl]-2-aza-2-spiro[3.3]heptyl}methanone] | < 0.05 |

Same assay, conditions: Method 4: Cayman Chemical MAGL enzyme, 15 nM; read-out: Potency (MAGL inhibition)

| Compound | IC50 [µM] |
| --- | --- |
| CCOc1cc(F)ccc1C(=O)N1CC2(CC(C(=O)N(C)c3cccnc3C)C2)C1 [Compound 198] | > 10 |

Same assay, conditions: Method 5: Cayman Chemical MAGL enzyme, 25 nM; read-out: MAGL Potency (Detection Method)

| Compound | IC50 [µM] |
| --- | --- |
| Cc1cc(C2CC3(C2)CN(C(=O)c2ccc(F)cc2OCC(F)(F)F)C3)n(-c2ccccc2C)n1 [Compound 178, [4-fluoro-2-(2,2,2-trifluoroethoxy)phenyl]{6-[3-methyl-1-(o-tolyl)-5-pyrazolyl]-2-aza-2-spiro[3.3]heptyl}methanone] | < 0.05 |

Same assay, conditions: Method 11: Reaction Biology MAGL enzyme, Conc 20 (text: 25 nM); read-out: Potency (MAGL inhibition)

| Compound | IC50 [µM] |
| --- | --- |
| Cc1cc(-c2cc(F)ccc2C)n(C2CC3(C2)CN(C(=O)c2ccc(F)cc2OC(F)(F)F)C3)n1 [Compound 427] | > 10 |

Same assay, conditions: Method 12: Reaction Biology MAGL enzyme, 15 nM; read-out: Potency (MAGL inhibition)

| Compound | IC50 [µM] |
| --- | --- |
| Cc1cnn(C2CC3(C2)CN(C(=O)c2cc(O)ccc2F)C3)c1-c1ccccc1F [Compound 494] | > 10 |
| Cc1cn(C2CC3(C2)CN(C(=O)c2cc(O)ccc2C(F)(F)F)C3)nc1-c1ccccc1F [Compound 495] | > 10 |
| O=C(c1c(F)cccc1OC1CC1)N1CC2(CC(n3ncc(C(F)(F)F)c3-c3ccccc3F)C2)C1 [Compound 521] | > 10 |

Target: T1, human MAGL
Test: as above
Format: biochemical
Settings: Method 1: Reaction Biology MAGL enzyme, 6 nM; read-out: MAGL Potency (Detection Method)
Excerpt: Cayman's Monoacylglycerol Lipase Inhibitor Screening Assay provides a method for screening human MAGL inhibitors. MAGL hydrolyzes 4-nitrophenylacetate resulting in a yellow product, 4-nitrophenol, with an absorbance of 405-412 nm. The monoacylglycerol lipase inhibitor screening assay kit from Cayman Chemical was used to measure the MAGL potency for the compounds in Table 3 and Table 4. Cayman's Monoacylglycerol Lipase Inhibitor Screening Assay provides a method for screening human MAGL inhibitors. MAGL hydrolyzes 4-nitrophenylacetate resulting in a yellow product, 4-nitrophenol, with an absorbance of 405-412 nm. MAGL Inhibition was measured by the following assay. Monoacylglycerol Lipase (MAGL) inhibition was measured using recombinant MAGL enzyme (aa 2-303 RBC, internal preparation) and the substrate 4-Nitrophenyl acetate (4NPA) (Sigma-Aldrich, N8130). Hydrolysis of the substrate in the presence of the enzyme was measured by absorbance at 405 nm. 10 μL of assay buffer (10 mM Tris pH 7.5, 1 mM EDTA, 0.9% DMSO) was added to a black 384-well non-binding plate with clear bottom (Greiner, 781906) for each reaction. […] DMSO control wells were included for reference. A 10.8 nM (1.8×) MAGL mix in assay buffer was prepared, with […] added to each reaction well, for a final assay concentration of 6 nM. No enzyme wells received 25 μL of buffer. Plate was incubated at room temperature for 30 minutes. 35 mM solution of 4NPA in methanol was prepared daily. A 4.5×4NPA substrate solution was prepared in assay buffer and 10 μL was added to each reaction well, for a final assay concentration of 0.25 mM. Plate was spun for 1 minute at 1000 rpm before measuring absorbance using a CLARIOstar plate reader (BMG Labtech). A kinetic reading at 405 nm was done every minute for 30 minutes. Data was analyzed using the linear slope of the reaction progress curve and the average of the no-enzyme wells (background) was subtracted from the data. The background-subtracted slope data was converted to % activity using the average of wells with enzyme and DMSO vehicle. IC50s were calculated using GraphPad software (Sigmoidal dose response, variable slope equation). […] Table 5 provides potency measurements of MAGL inhibition measured using the Potency Assay of Example 18 above, with the following modifications described in Table C. [table]

| Compound | IC50 [µM] |
| --- | --- |
| Cc1cc(C2CC3(C2)CN(C(=O)c2cc(O)ccc2C#N)C3)n(-c2ccccc2C)n1 [Compound 128, 4-hydroxy-2-({6-[3-methyl-1-(o-tolyl)-5-pyrazolyl]-2-aza-2-spiro[3.3]heptyl}carbonyl)benzonitrile] | < 0.05 |
| Cc1cc(C2CC3(C2)CN(C(=O)c2cc(O)c(F)cc2F)C3)n(-c2ccccc2C)n1 [Compound 126, (2,4-difluoro-5-hydroxyphenyl) (6-(3-methyl-1-(o-tolyl)-1H-pyrazol-5-yl)-2-azaspiro[3.3]heptan-2-yl) methanone] | < 0.05 |

Same assay, conditions: Method 6: Reaction Biology MAGL enzyme, 6 nM; read-out: Potency (MAGL inhibition)

| Compound | IC50 [µM] |
| --- | --- |
| O=C(c1cc(O)ccc1F)N1CC2(CC(n3cc(C4CC4)c(-c4ccccc4Cl)n3)C2)C1 [Compound 445] | > 10 |
| Cc1cn(C2CC3(C2)CN(C(=O)c2cc(O)ccc2F)C3)nc1-c1ccccc1Cl [Compound 416] | > 10 |
| Cc1cc(-c2ccccc2C)n(C2CC3(C2)CN(C(=O)c2cc(O)ccc2F)C3)n1 [Compound 406] | > 10 |
| Cc1ccccc1-c1c(C)cnn1C1CC2(C1)CN(C(=O)c1cc(O)ccc1F)C2 [Compound 405] | > 10 |
| Cc1ccccc1-c1ccn(C2CC3(C2)CN(C(=O)c2cc(O)ccc2F)C3)n1 [Compound 441] | > 10 |
| Cc1ccccc1-c1cc(C)n(C2CC3(C2)CN(C(=O)c2cc(O)ccc2F)C3)n1 [Compound 442] | > 10 |
| Cc1cnn(C2CC3(C2)CN(C(=O)c2cc(O)ccc2F)C3)c1-c1ccccc1Cl [Compound 404] | > 10 |
| O=C(c1ccc(F)cc1OC1CC1)N1CC2(CC(n3nc(C(F)(F)F)cc3-c3ccccc3C(F)(F)F)C2)C1 [Compound 424, (2-cyclopropoxy-4-fluorophenyl) (6-(3-(trifluoromethyl)-5-(2-(trifluoromethyl)phenyl)-1H-pyrazol-1-yl)-2-azaspiro[3.3]heptan-2-yl) methanone] | > 10 |

Same assay, conditions: Method 14: Reaction Biology MAGL enzyme, 6 nM; read-out: MAGL Potency (Detection Method)

| Compound | IC50 [µM] |
| --- | --- |
| Cc1ccccc1-n1nccc1C1CC2(C1)CN(C(=O)c1cc(O)ccc1F)C2 [Compound 367, (2-fluoro-5-hydroxyphenyl) (6-(1-(o-tolyl)-1H-pyrazol-5-yl)-2-azaspiro [3.3]heptan-2-yl) methanone] | 0.05 to 0.15 |
| Cc1cc(C2CC3(C2)CN(C(=O)c2cc(O)ccc2F)C3)n(-c2cc(F)ccc2C)n1 [Compound 365, (2-fluoro-5-hydroxyphenyl) {6-[1-(5-fluoro-2-tolyl)-3-methyl-5-pyrazolyl]-2-aza-2-spiro[3.3]heptyl}methanone] | < 0.05 |
| Cc1cc(C2CC3(C2)CN(C(=O)c2cc(O)ccc2F)C3)n(-c2ccccc2C(F)(F)F)n1 [Compound 366, (2-fluoro-5-hydroxyphenyl) (6-{3-methyl-1-[o-(trifluoromethyl)phenyl]-5-pyrazolyl}-2-aza-2-spiro[3.3]heptyl) methanone] | < 0.05 |

Same assay, conditions: Method 14: Reaction Biology MAGL enzyme, 6 nM; read-out: Potency (MAGL inhibition)

| Compound | IC50 [µM] |
| --- | --- |
| Cc1cc(C2CC3(C2)CN(C(=O)c2cc4c(cc2F)CCO4)C3)n(-c2ccccc2C)n1 [Compound 368] | > 10 |
| Cc1cc(C2CC3(C2)CN(C(=O)c2ccc4c(c2)OCC4)C3)n(-c2ccccc2C)n1 [Compound 402] | > 10 |
| Cc1cc(C2CC3(C2)CN(C(=O)c2cccc4c2CCO4)C3)n(-c2ccccc2C)n1 [Compound 403] | > 10 |
| O=C(c1cc(O)ccc1F)N1CC2(CC(C(=O)N3CCOCC3)C2)C1 [Compound 384] | > 10 |
| O=C(c1cc(O)ccc1F)N1CC2(CC(C(=O)N3CCC4(CCCO4)C3)C2)C1 (stereo not drawn) [Compound 400] | > 10 |
| O=C(NCC1COC1)C1CC2(C1)CN(C(=O)c1cc(O)ccc1F)C2 [Compound 395] | > 10 |
| O=C(c1cc(O)ccc1F)N1CC2(CC(C(=O)N3CCCC3)C2)C1 [Compound 388] | > 10 |
| O=C(c1cc(O)ccc1F)N1CC2(CC(C(=O)N3CCC4(COC4)C3)C2)C1 [Compound 391] | > 10 |

Same assay, conditions: read-out: Potency (MAGL inhibition)

| Compound | IC50 [µM] |
| --- | --- |
| Cc1cc(C2CC3(C2)CN(Cc2cc(O)ccc2F)C3)n(-c2ccccc2C)n1 [Compound 150, 4-fluoro-3-((6-(3-methyl-1-(o-tolyl)-1H-pyrazol-5-yl)-2-azaspiro[3.3]heptan-2-yl)methyl) phenol] | > 10 |
